Source: patent publication US6770660B2, “Method for inhibiting platelet aggregation” (Artery LLC, priority 2002, dated 2004)
Structures can show the parent of a compound that is named as a salt. Where two headings read alike, the source gives them in different places.

Tests used:
[1] = tested on: capacity of platelets to bind fibrinogen; details: 25 μg/kg (high) bolus compared with 20 μg/kg bolus; 1 μM adenosine diphosphate; flow cytometry
Method: Blood was obtained after 5 minutes for analysis by flow cytometry. […] Blood for flow cytometry was anticoagulated with corn trypsin inhibitor, a specific inhibitor of coagulation factor XIIa without effect on other coagulation factors (Schneider et al., Circulation (1997) vol. 96 pp. 2877-83). […] For flow cytometry, samples were processed and platelets were fixed at each site. […] Light transmission aggregometry and rapid platelet function analyzer were performed with […] -chloromethyl ketone as the anticoagulant and flow cytometry was performed with blood anticoagulated with corn trypsin inhibitor.

platelet aggregation [2] = details: patients; 10 μg/kg bolus followed by 0.15 μg/kg/min infusion; 15 to 60 minutes after bolus; monohydrochloride; cited from earlier work
platelet aggregation [3] = details: patients, 15 through 60 minutes, 20 μM adenosine diphosphate, monohydrochloride
Method: (§1) Patients were treated with a 20 μg/kg bolus of tirofiban hydrochloride followed by a 0.15 μg/kg/min infusion for 18-24 hours or a 25 μg/kg bolus followed by the same infusion. Enrollment of subjects in the panel with the 20 μg/kg bolus (n=15/panel) was completed and the clinical effects and pharmacodynamic properties were evaluated before subjects were enrolled in the panel with the 25 μg/kg bolus. Patients were treated with aspirin (325 mg before the procedure and daily) and unfractionated heparin (target activated clotting time 250 seconds). Clopidogrel (300 mg and then 75 mg daily)(commercially available as PLAVIX®) was administered at least 45 minutes after the start of tirofiban hydrochloride. All other medications were administered at the discretion of the attending cardiologist. Sheath removal was performed when the activated clotting time was less than 175 seconds unless a closure device was used.

[4] = for major bleeding episodes: patients
Method: as §1, with “used. […] The occurrence of 3 major bleeding episodes (as defined by the American College of Cardiology Task force (Cannon et al. J. Am. Coll. Cardiol. (2001) vol. 38 pp. 2114-30) in each panel was a pre-specified criteria for termination of the study.” for “used.”

- major bleeding episodes ([4]; 20 μg/kg bolus followed by 0.15 μg/kg/min infusion for 18-24 hours): No major bleeding episode occurred
- major bleeding episodes ([4]; 25 μg/kg bolus followed by 0.15 μg/kg/min infusion for 18-24 hours): No major bleeding episode occurred
Compound: CCCCS(=O)(=O)N[C@@H](Cc1ccc(OCCCCC2CCNCC2)cc1)C(=O)O [tirofiban hydrochloride, N-(butylsulfonyl)-O-[4-(4-piperidinyl)butyl]-L-tyrosine monohydrochloride]
- extent of inhibition of the capacity to bind fibrinogen [1]: greater
- average inhibition of maximal aggregation / % Inhibition of platelet aggregation 15-60 minutes after bolus injection (platelet aggregation [2]): 61-66%
- average extent of inhibition of platelet aggregation / % Inhibition of platelet aggregation 15-60 minutes after bolus injection (platelet aggregation [3]; 20 μg/kg bolus followed by 0.15 μg/kg/min infusion): 84-89%
- average extent of inhibition of platelet aggregation / % Inhibition of platelet aggregation 15-60 minutes after bolus injection (platelet aggregation [3]; 25 μg/kg bolus followed by 0.15 μg/kg/min infusion, listed as tirofiban): 92-95%
- average extent of inhibition of platelet aggregation / % Inhibition of platelet aggregation 15-60 minutes after bolus injection (platelet aggregation [3]; 25 μg/kg bolus followed by 0.15 μg/kg/min infusion): greater than 90%
- undesirable side effects ([4]; about 25 μg/kg bolus compared with conventional bolus): absence of increased undesirable side effects
